This test has as its target T1, human RORgT (Homo sapiens, UniProt P51449).
T1 construct: expressed in transfected cells
T1 sequence (P51449 267-516): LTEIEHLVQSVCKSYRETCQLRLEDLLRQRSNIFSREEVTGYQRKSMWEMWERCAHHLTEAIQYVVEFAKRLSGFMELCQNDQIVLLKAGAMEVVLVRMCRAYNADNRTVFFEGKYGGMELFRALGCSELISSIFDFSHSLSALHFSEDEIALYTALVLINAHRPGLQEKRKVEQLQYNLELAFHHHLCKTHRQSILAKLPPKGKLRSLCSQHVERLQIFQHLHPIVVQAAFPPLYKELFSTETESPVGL
The experiment in a line: RORgT Gal4 Luciferase Reporter Gene Assay. The format is cell-based. As to conditions: engineered Jurkat cells overexpressing RORgT (LBD or full length) fused with Gal4 Luc reporter; 18 hours at 37° C.; luminescence. The essentials:
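Jurkat cells expressing Gal4 Luc with either RORgT LBD (aa267-516) or full-length human RORgT, 10,000 cells/well, treated with compound (40 µM to 0.67 nM final, 3-fold dilutions) for 18 h at 37° C. Steady-Glo luminescence read; inhibition of constitutive activity as % signal-window reduction relative to a control compound.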
In general terms: Reporter assays use an easily measured gene product as a stand-in for the process of interest.

Broadly, the EC50 is the concentration needed to bring the measured effect to its halfway point. A lower EC50 goes with a more potent agent.

`NC(=O)N1CCC(C(=O)N2CC[C@@]3(S(=O)(=O)c4ccccc4)c4ccc(OCc5c(F)cccc5Cl)cc4CC[C@@H]23)CC1` [Example 141, 4-[(3aR,9bR)-9b-(benzenesulfonyl)-7-[(2-chloro-6-fluorophenyl)methoxy]-1H,2H,3H,3aH,4H,5H,9bH-benzo[e]indole-3-carbonyl]piperidine-1-carboxamide] registered an EC50 of 10 nM.

Compound `O=C(O)[C@H]1CC[C@H](C(=O)N2CC[C@@]3(S(=O)(=O)c4ccccc4)c4ccc(OCc5c(F)cccc5Cl)cc4CC[C@@H]23)CC1` [Example 142, (1r,4r)-4-[(3aR,9bR)-9b-(benzenesulfonyl)-7-[(2-chloro-6-fluorophenyl)methoxy]-1H,2H,3H,3aH,4H,5H,9bH-benzo[e]indole-3-carbonyl]cyclohexane-1-carboxylic acid] came in with an EC50 of 13 nM.

The compound `O=C1CC[C@H](C(=O)N2CC[C@@]3(S(=O)(=O)c4ccccc4)c4ccc(OCc5c(F)cccc5Cl)cc4CC[C@@H]23)N1` [Example 143, (5R)-5-[(3aR,9bR)-9b-(benzenesulfonyl)-7-[(2-chloro-6-fluorophenyl)methoxy]-1H,2H,3H,3aH,4H,5H,9bH-benzo[e]indole-3-carbonyl]pyrrolidin-2-one] registered an EC50 of 195 nM.

As for `CN1NC(=O)C[C@H]1C(=O)N1CC[C@@]2(S(=O)(=O)c3ccccc3)c3ccc(OCc4c(F)cccc4Cl)cc3CC[C@@H]12` [Example 144, (5S)-5-[(3aR,9bR)-9b-(benzenesulfonyl)-7-[(2-chloro-6-fluorophenyl)methoxy]-1H,2H,3H,3aH,4H,5H,9bH-benzo[e]indole-3-carbonyl]-1-methylpyrazolidin-3-one], the EC50 was 111 nM.

With `CS(=O)(=O)NCC(=O)N1CC[C@@]2(S(=O)(=O)c3ccccc3)c3ccc(OCc4c(F)cccc4Cl)cc3CC[C@@H]12` [Example 145, N-{2-[(3aR,9bR)-9b-(benzenesulfonyl)-7-[(2-chloro-6-fluorophenyl)methoxy]-1H,2H,3H,3aH,4H,5H,9bH-benzo[e]indol-3-yl]-2-oxoethyl} methanesulfonamide], the EC50 is 614 nM.

The compound `[2H]C([2H])([2H])N1C(=O)CC[C@H]1C(=O)N1CC[C@@]2(S(=O)(=O)c3ccccc3)c3ccc(OCc4c(F)cccc4Cl)cc3CC[C@@H]12` [Example 146, (5S)-5-[(3aR,9bR)-9b-(benzenesulfonyl)-7-[(2-chloro-6-fluorophenyl)methoxy]-1H,2H,3H,3aH,4H,5H,9bH-benzo[e]indole-3-carbonyl]-1-(^2H)methylpyrrolidin-2-one] had an EC50 of 6.5 nM.

For the compound `O=C(O)C12CCC(C(=O)N3CC[C@@]4(S(=O)(=O)c5ccccc5)c5ccc(OCc6c(F)cccc6Cl)cc5CC[C@@H]34)(CC1)CC2` [Example 147, 4-[(3aR,9bR)-9b-(benzenesulfonyl)-7-[(2-chloro-6-fluorophenyl)methoxy]-1H,2H,3H,3aH,4H,5H,9bH-benzo[e]indole-3-carbonyl]bicyclo[2.2.2]octane-1-carboxylic acid], the midpoint of the response, the EC50, lay at 104 nM.

The compound `NS(=O)(=O)CC(=O)N1CC[C@@]2(S(=O)(=O)c3ccccc3)c3ccc(OCc4c(F)cccc4Cl)cc3CC[C@@H]12` [Example 148, 2-[(3aR,9bR)-9b-(benzenesulfonyl)-7-[(2-chloro-6-fluorophenyl)methoxy]-1H,2H,3H,3aH,4H,5H,9bH-benzo[e]indol-3-yl]-2-oxoethane-1-sulfonamide] had an EC50 of 119 nM.

Consider `O=C(C1CCS(=O)(=O)CC1)N1CC[C@@]2(S(=O)(=O)c3ccccc3)c3ccc(OCc4c(F)cc(F)cc4Cl)cc3CC[C@@H]12` [Example 149, 4-[(3aR,9bR)-9b-(benzenesulfonyl)-7-[(2-chloro-4,6-difluorophenyl)methoxy]-1H,2H,3H,3aH,4H,5H,9bH-benzo[e]indole-3-carbonyl]-1λ^6-thiane-1,1-dione], for which the midpoint of the response, the EC50, lay at 7.7 nM.

As to `CN1C(=O)CC[C@H]1C(=O)N1CC[C@@]2(S(=O)(=O)c3ccccc3)c3ccc(OCc4c(F)cccc4Cl)cc3CC[C@@H]12` [Example 150, (5S)-5-[(3aR,9bR)-9b-(benzenesulfonyl)-7-[(2-chloro-6-fluorophenyl)methoxy]-1H,2H,3H,3aH,4H,5H,9bH-benzo[e]indole-3-carbonyl]-1-methylpyrrolidin-2-one], the EC50 stood at 6.1 nM.

With `O=C(O)[C@H]1CC[C@H](C(=O)N2CC[C@@]3(S(=O)(=O)c4ccc(F)cc4)c4ccc(OCc5cc(F)c(F)cc5Cl)cc4CC[C@@H]23)CC1` [Example 151, (1r,4r)-4-[(3aR,9bR)-7-[(2-chloro-4,5-difluorophenyl)methoxy]-9b-(4-fluorobenzenesulfonyl)-1H,2H,3H,3aH,4H,5H,9bH-benzo[e]indole-3-carbonyl]cyclohexane-1-carboxylic acid], the EC50 was found to be 16 nM.

Take `O=C(C1CCS(=O)(=O)CC1)N1CC[C@@]2(S(=O)(=O)c3ccc(F)cc3)c3ccc(OCc4cc(F)c(F)cc4Cl)cc3CC[C@@H]12` [Example 152, 4-[(3aR,9bR)-7-[(2-chloro-4,5-difluorophenyl)methoxy]-9b-(4-fluorobenzenesulfonyl)-1H,2H,3H,3aH,4H,5H,9bH-benzo[e]indole-3-carbonyl]-1λ^6-thiane-1,1-dione]: the EC50 is 15 nM.

The compound `O=C(C1CCS(=O)(=O)CC1)N1CC[C@@]2(S(=O)(=O)c3ccc(F)cc3)c3ccc(OCc4cccc(Cl)c4)cc3CC[C@@H]12` [Example 153, 4-[(3aR,9bR)-7-[(3-chlorophenyl)methoxy]-9b-(4-fluorobenzenesulfonyl)-1H,2H,3H,3aH,4H,5H,9bH-benzo[e]indole-3-carbonyl]-1λ^6-thiane-1,1-dione] showed an EC50 of 14 nM.

Compound `NS(=O)(=O)CC(=O)N1CC[C@@]2(S(=O)(=O)c3ccc(F)cc3)c3ccc(OCc4c(F)cccc4Cl)cc3CC[C@@H]12` [Example 154, 2-[(3aR,9bR)-7-[(2-chloro-6-fluorophenyl)methoxy]-9b-(4-fluorobenzenesulfonyl)-1H,2H,3H,3aH,4H,5H,9bH-benzo[e]indol-3-yl]-2-1 oxoethane-1-sulfonamide] displayed an EC50 of 58 nM.

`N#CCCN1C(=O)CC[C@H]1C(=O)N1CC[C@@]2(S(=O)(=O)c3ccc(F)cc3)c3ccc(OCc4c(F)cccc4C(F)(F)F)cc3CC[C@@H]12` [Example 155, 3-[(2S)-2-[(3aR,9bR)-7-{[2-fluoro-6-(trifluoromethyl)phenyl]methoxy}-9b-(4-fluorobenzenesulfonyl)-1H,2H,3H,3aH,4H,5H,9bH-benzo[e]indole-3-carbonyl]-5-oxopyrrolidin-1-yl]propanenitrile]: the EC50 worked out at 4.3 nM.

In the case of `N#CCCN1C(=O)CC[C@H]1C(=O)N1CC[C@@]2(S(=O)(=O)c3ccc(F)cc3)c3ccc(OCc4c(Cl)cccc4Cl)cc3CC[C@@H]12` [Example 156, 3-[(2S)-2-[(3aR,9bR)-7-[(2,6-dichlorophenyl)methoxy]-9b-(4-fluorobenzenesulfonyl)-1H,2H,3H,3aH,4H,5H,9bH-benzo[e]indole-3-carbonyl]-5-oxopyrrolidin-1-yl]propanenitrile], the EC50 is 11 nM.

The compound `N#CCCN1C(=O)CC[C@H]1C(=O)N1CC[C@@]2(S(=O)(=O)c3ccc(F)cc3)c3ccc(OCc4cc(Cl)ccc4Cl)cc3CC[C@@H]12` [Example 157, 3-[(2S)-2-[(3aR,9bR)-7-[(2,5-dichlorophenyl)methoxy]-9b-(4-fluorobenzenesulfonyl)-1H,2H,3H,3aH,4H,5H,9bH-benzo[e]indole-3-carbonyl]-5-oxopyrrolidin-l-yl]propanenitrile] displayed an EC50 of 4.3 nM.

In turn, `N#CCCN1C(=O)CC[C@H]1C(=O)N1CC[C@@]2(S(=O)(=O)c3ccc(F)cc3)c3ccc(OCc4cc(F)c(F)cc4Cl)cc3CC[C@@H]12` [Example 158, 3-[(2S)-2-[(3aR,9bR)-7-[(2-chloro-4,5-difluorophenyl)methoxy]-9b-(4-fluorobenzenesulfonyl)-1H,2H,3H,3aH,4H,5H,9bH-benzo[e]indole-3-carbonyl]-5-oxopyrrolidin-l-yl]propanenitrile] had an EC50 of 12 nM.

For the compound `O=C(O)[C@H]1CC[C@H](C(=O)N2CC[C@@]3(S(=O)(=O)c4ccc(F)cc4)c4ccc(CCc5c(Cl)cccc5Cl)cc4CC[C@@H]23)CC1` [Example 159, (1r,4r)-4-[(3aR,9bR)-7-[2-(2,6-dichlorophenyl)ethyl]-9b-(4-fluorobenzenesulfonyl)-1H,2H,3H,3aH,4H,5H,9bH-benzo[e]indole-3-carbonyl]cyclohexane-1-carboxylic acid], the EC50 is 1.1 nM.

The compound `N#CCCN1C(=O)CC[C@H]1C(=O)N1CC[C@@]2(S(=O)(=O)c3ccc(F)cc3)c3ccc(OCc4c(F)cccc4Cl)cc3CC[C@@H]12` [Example 160, 3-[(2S)-2-[(3aR,9bR)-7-[(2-chloro-6-fluorophenyl)methoxy]-9b-(4-fluorobenzenesulfonyl)-1H,2H,3H,3aH,4H,5H,9bH-benzo[e]indole-3-carbonyl]-5-oxopyrrolidin-l-yl]propanenitrile] came in with an EC50 of 10 nM.

`O=C(C1CCS(=O)(=O)CC1)N1CC[C@@]2(S(=O)(=O)c3ccc(F)cc3)c3ccc(CCc4c(Cl)cccc4Cl)cc3CC[C@@H]12` [Example 161, 4-[(3aR,9bR)-7-[2-(2,6-dichlorophenyl)ethyl]-9b-(4-fluorobenzenesulfonyl)-1H,2H,3H,3aH,4H,5H,9bH-benzo[e]indole-3-carbonyl]-1λ^6-thiane-1,1-dione] registered an EC50 of 5.8 nM.

For the compound `NC(=O)N1CCC(C(=O)N2CC[C@@]3(S(=O)(=O)c4ccc(F)cc4)c4ccc(CCc5c(Cl)cccc5Cl)cc4CC[C@@H]23)CC1` [Example 162, 4-[(3aR,9bR)-7-[2-(2,6-dichlorophenyl)ethyl]-9b-(4-fluorobenzenesulfonyl)-1H,2H,3H,3aH,4H5H,9bH-benzo[e]indole-3-carbonyl]piperidine-1-carboxamide], the EC50 was found to be 8.1 nM.
